Test results from ChEMBL document CHEMBL1201862, “PubChem BioAssay data set” (2004).
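Tested at 5 concentrations; 48 h exposure; 96-well plates; endpoints linearly interpolated, else capped at highest concentration. GI50 marks 50% less growth.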 Active and inactive are the calls of the source. Rule as the data show it: active = GI50 up to about 1.1 µM and inactive = higher.

Assays:
Test in all cases: growth of human tumour cells (NCI), 48 h
HL-60 = test system: HL-60
NCI-H460 = test system: NCI-H460
CCRF-CEM = test system: CCRF-CEM
LOX IMVI = test system: LOX IMVI
SNB-75 = test system: SNB-75
786-0 = test system: 786-0
SF-295 = test system: SF-295
OVCAR-4 = test system: OVCAR-4
HCT-116 = test system: HCT-116
K562 = test system: K562
SF-539 = test system: SF-539
OVCAR-3 = test system: OVCAR-3
Malme-3M = test system: Malme-3M
UACC-257 = test system: UACC-257
OVCAR-5 = test system: OVCAR-5

Measured: GI50

C/C(=N\N=C(\N)S)c1ccc(Oc2ccccc2)cc1
inactive: HL-60 4.06 µM | NCI-H460 17.3 µM | CCRF-CEM 5.04 µM | LOX IMVI 13.5 µM | SNB-75 7.38 µM | 786-0 4.05 µM | SF-295 8.07 µM | OVCAR-4 3.7 µM | HCT-116 10.2 µM | K562 4.83 µM | SF-539 5.38 µM | OVCAR-3 10.1 µM

O=C(C#Cc1ccccc1)Nc1ccccc1CC(c1c[nH]c2ccccc12)c1c[nH]c2ccccc12
inactive: CCRF-CEM 3.3 µM | LOX IMVI 7.43 µM | SNB-75 5.9 µM | 786-0 9.53 µM | SF-295 9.46 µM | Malme-3M 25.6 µM | K562 4.47 µM | SF-539 12.3 µM | OVCAR-3 9.44 µM | UACC-257 23.8 µM

CCCOC(=O)C1CCC(=O)N1C(=O)C(C)Cl (stereo not drawn)
inactive: HL-60 > 100 µM | NCI-H460 > 100 µM | OVCAR-5 > 100 µM | CCRF-CEM > 100 µM | LOX IMVI > 100 µM | SNB-75 > 100 µM | 786-0 > 100 µM | SF-295 > 100 µM | OVCAR-4 > 100 µM | HCT-116 > 100 µM | Malme-3M > 100 µM | K562 > 100 µM | OVCAR-3 > 100 µM | UACC-257 > 100 µM

O=C(O)CNCc1c2ccccc2[n+]([O-])c2ccccc12
inactive: HL-60 33.5 µM | NCI-H460 72.4 µM | OVCAR-5 > 100 µM | CCRF-CEM 34.3 µM | LOX IMVI 36.6 µM | SNB-75 34.5 µM | 786-0 58.2 µM | SF-295 > 100 µM | OVCAR-4 49.3 µM | HCT-116 20.2 µM | Malme-3M > 100 µM | K562 38.2 µM | OVCAR-3 > 100 µM | UACC-257 > 100 µM

CCN(CC)c1ccc(C2N3CCCCC3[C@@H]3c4[nH]c5ccccc5c4CCN23)cc1 (stereo partly drawn)
inactive: HL-60 7.43 µM | NCI-H460 22.3 µM | OVCAR-5 51.3 µM | CCRF-CEM 16.3 µM | SNB-75 6.11 µM | 786-0 37.8 µM | SF-295 53.7 µM | OVCAR-4 36.5 µM | HCT-116 16.1 µM | Malme-3M 24.2 µM | K562 15.2 µM | SF-539 18.3 µM | OVCAR-3 23.9 µM | UACC-257 27.7 µM

CCCCN(CCCC)CC(C(=O)Nc1ccc([N+](=O)[O-])cc1[N+](=O)[O-])/C(C)=N\NC(=S)NN (stereo not drawn)
inactive: HL-60 46 µM | NCI-H460 > 100 µM | OVCAR-5 > 100 µM | CCRF-CEM 49.4 µM | LOX IMVI > 100 µM | SNB-75 > 100 µM | 786-0 > 100 µM | SF-295 > 100 µM | HCT-116 > 100 µM | Malme-3M > 100 µM | K562 40.7 µM | SF-539 > 100 µM | OVCAR-3 84.3 µM | UACC-257 > 100 µM

Cc1ccc(O)c(/N=N/c2ccc(S(=O)(=O)O)cc2)n1
inactive: HL-60 > 100 µM | NCI-H460 > 100 µM | CCRF-CEM > 100 µM | LOX IMVI > 100 µM | 786-0 > 100 µM | SF-295 > 100 µM | HCT-116 > 100 µM | K562 > 100 µM | SF-539 > 100 µM

Cc1c(O)c(=O)ccn1CCN
inactive: NCI-H460 > 100 µM | OVCAR-5 > 100 µM | CCRF-CEM > 100 µM | LOX IMVI > 100 µM | SNB-75 > 100 µM | 786-0 > 100 µM | OVCAR-4 > 100 µM | HCT-116 > 100 µM | Malme-3M > 100 µM | K562 > 100 µM | UACC-257 > 100 µM
